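Values below derive from 48-hour exposures of cells grown in 96-well plates, with endpoints linearly interpolated between the two concentrations bracketing the appropriate inhibition level. GI50 = concentration required for 50% inhibition of growth. At the TGI there is no net growth.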
Tests used:
Test in all cases: NCI-60 cell line screen, 48 h
OVCAR-5 ovarian = system: OVCAR-5 ovarian
U251 CNS = system: U251 CNS
SNB-19 CNS = system: SNB-19 CNS
OVCAR-8 ovarian = system: OVCAR-8 ovarian
UACC-62 melanoma = system: UACC-62 melanoma
HCT-116 colon = system: HCT-116 colon
NCI-H460 lung = system: NCI-H460 lung
SK-MEL-28 melanoma = system: SK-MEL-28 melanoma
MCF7 breast = system: MCF7 breast
786-0 renal = system: 786-0 renal
SF-539 CNS = system: SF-539 CNS
A498 renal = system: A498 renal
DU-145 prostate = system: DU-145 prostate
SF-295 CNS = system: SF-295 CNS
HL-60(TB) leukemia = system: HL-60(TB) leukemia
HCC-2998 colon = system: HCC-2998 colon
NCI/ADR-RES ovarian = system: NCI/ADR-RES ovarian
MALME-3M melanoma = system: MALME-3M melanoma
PC-3 prostate = system: PC-3 prostate
RXF 393 renal = system: RXF 393 renal
HT29 colon = system: HT29 colon
LOX IMVI melanoma = system: LOX IMVI melanoma
K-562 leukemia = system: K-562 leukemia
COLO 205 colon = system: COLO 205 colon
SK-MEL-2 melanoma = system: SK-MEL-2 melanoma
NCI-H23 lung = system: NCI-H23 lung
TK-10 renal = system: TK-10 renal
ACHN renal = system: ACHN renal
MDA-MB-435 = system: MDA-MB-435
HS 578T breast = system: HS 578T breast
MOLT-4 leukemia = system: MOLT-4 leukemia
A549 NSCLC = system: A549 NSCLC
SK-OV-3 ovarian = system: SK-OV-3 ovarian
UACC-257 melanoma = system: UACC-257 melanoma
NCI-H522 lung = system: NCI-H522 lung
T-47D breast = system: T-47D breast
UO-31 renal = system: UO-31 renal
RPMI-8226 leukemia = system: RPMI-8226 leukemia
HOP-62 NSCLC = system: HOP-62 NSCLC
NCI-H226 lung = system: NCI-H226 lung
SF-268 CNS = system: SF-268 CNS
M14 melanoma = system: M14 melanoma
CAKI-1 renal = system: CAKI-1 renal
OVCAR-3 ovarian = system: OVCAR-3 ovarian
BT-549 breast = system: BT-549 breast
SNB-75 CNS = system: SNB-75 CNS
SN12C renal = system: SN12C renal
SR leukemia = system: SR leukemia
HCT-15 colon = system: HCT-15 colon
KM12 colon = system: KM12 colon
CCRF-CEM leukemia = system: CCRF-CEM leukemia
SK-MEL-5 melanoma = system: SK-MEL-5 melanoma
OVCAR-4 ovarian = system: OVCAR-4 ovarian
IGROV1 ovarian = system: IGROV1 ovarian
SW-620 colon = system: SW-620 colon
MDA-MB-231 breast = system: MDA-MB-231 breast
HOP-92 NSCLC = system: HOP-92 NSCLC

Cc1c(-c2ccc(C3CCCCC3)cc2)nc2ccc(F)cc2c1C(=O)O
GI50 (OVCAR-5 ovarian): > 100 µM | TGI (OVCAR-5 ovarian): > 100 µM | GI50 (U251 CNS): 0.0588 µM | TGI (U251 CNS): > 100 µM | GI50 (SNB-19 CNS): 0.2 µM | TGI (SNB-19 CNS): > 100 µM | GI50 (OVCAR-8 ovarian): 0.123 µM | TGI (OVCAR-8 ovarian): > 100 µM | GI50 (UACC-62 melanoma): 0.205 µM | TGI (UACC-62 melanoma): > 100 µM | GI50 (HCT-116 colon): 0.0508 µM | TGI (HCT-116 colon): > 100 µM | GI50 (NCI-H460 lung): 0.0461 µM | TGI (NCI-H460 lung): > 100 µM | GI50 (SK-MEL-28 melanoma): 14.5 µM | TGI (SK-MEL-28 melanoma): > 100 µM | GI50 (MCF7 breast): 0.168 µM | TGI (MCF7 breast): > 100 µM | GI50 (786-0 renal): 0.235 µM | TGI (786-0 renal): > 100 µM | GI50 (SF-539 CNS): 0.0701 µM | TGI (SF-539 CNS): > 70 µM | GI50 (A498 renal): > 36.6 µM | TGI (A498 renal): > 100 µM | GI50 (DU-145 prostate): 0.802 µM | TGI (DU-145 prostate): > 100 µM | GI50 (SF-295 CNS): 0.0881 µM | TGI (SF-295 CNS): > 100 µM | GI50 (HL-60(TB) leukemia): 0.335 µM | TGI (HL-60(TB) leukemia): > 100 µM | GI50 (HCC-2998 colon): 10.1 µM | TGI (HCC-2998 colon): > 100 µM | GI50 (NCI/ADR-RES ovarian): 0.609 µM | TGI (NCI/ADR-RES ovarian): > 100 µM | GI50 (MALME-3M melanoma): > 51.4 µM | TGI (MALME-3M melanoma): > 100 µM | GI50 (PC-3 prostate): 0.0797 µM | TGI (PC-3 prostate): > 100 µM | GI50 (RXF 393 renal): 10.7 µM | TGI (RXF 393 renal): > 100 µM | GI50 (HT29 colon): 0.311 µM | TGI (HT29 colon): > 100 µM | GI50 (LOX IMVI melanoma): 0.0512 µM | TGI (LOX IMVI melanoma): > 100 µM | GI50 (K-562 leukemia): 0.0574 µM | TGI (K-562 leukemia): > 100 µM | GI50 (COLO 205 colon): 0.185 µM | TGI (COLO 205 colon): > 100 µM | GI50 (SK-MEL-2 melanoma): > 45.9 µM | TGI (SK-MEL-2 melanoma): > 100 µM | GI50 (NCI-H23 lung): 6.54 µM | TGI (NCI-H23 lung): > 100 µM | GI50 (TK-10 renal): > 76.2 µM | TGI (TK-10 renal): > 100 µM | GI50 (ACHN renal): 0.33 µM | TGI (ACHN renal): > 100 µM | GI50 (MDA-MB-435): 0.322 µM | TGI (MDA-MB-435): > 100 µM | GI50 (HS 578T breast): 34.8 µM | TGI (HS 578T breast): > 100 µM | GI50 (MOLT-4 leukemia): 0.0679 µM | TGI (MOLT-4 leukemia): > 100 µM | GI50 (A549 NSCLC): 0.128 µM | TGI (A549 NSCLC): > 100 µM | GI50 (SK-OV-3 ovarian): > 100 µM | TGI (SK-OV-3 ovarian): > 100 µM | GI50 (UACC-257 melanoma): 4.79 µM | TGI (UACC-257 melanoma): > 100 µM | GI50 (NCI-H522 lung): 0.766 µM | TGI (NCI-H522 lung): > 100 µM | GI50 (T-47D breast): 9.65 µM | TGI (T-47D breast): > 100 µM | GI50 (UO-31 renal): 0.721 µM | TGI (UO-31 renal): > 100 µM | GI50 (RPMI-8226 leukemia): 0.273 µM | TGI (RPMI-8226 leukemia): > 100 µM | TGI (HOP-62 NSCLC): > 100 µM | GI50 (NCI-H226 lung): 3.08 µM | TGI (NCI-H226 lung): > 100 µM | GI50 (SF-268 CNS): 0.405 µM | TGI (SF-268 CNS): > 100 µM | GI50 (M14 melanoma): 0.788 µM | TGI (M14 melanoma): > 100 µM | GI50 (CAKI-1 renal): 0.0815 µM | TGI (CAKI-1 renal): > 100 µM | GI50 (OVCAR-3 ovarian): 0.475 µM | TGI (OVCAR-3 ovarian): > 100 µM | GI50 (BT-549 breast): 9.89 µM | TGI (BT-549 breast): > 100 µM | GI50 (SNB-75 CNS): 12.2 µM | TGI (SNB-75 CNS): > 100 µM | GI50 (SN12C renal): 0.546 µM | TGI (SN12C renal): > 100 µM | GI50 (SR leukemia): 0.0629 µM | TGI (SR leukemia): > 100 µM | GI50 (HCT-15 colon): 0.0196 µM | TGI (HCT-15 colon): > 100 µM | GI50 (KM12 colon): 0.402 µM | TGI (KM12 colon): > 100 µM | GI50 (CCRF-CEM leukemia): 0.0858 µM | TGI (CCRF-CEM leukemia): > 100 µM | GI50 (SK-MEL-5 melanoma): 0.0799 µM | TGI (SK-MEL-5 melanoma): > 100 µM | GI50 (OVCAR-4 ovarian): 38 µM | TGI (OVCAR-4 ovarian): > 100 µM | GI50 (IGROV1 ovarian): 1 µM | TGI (IGROV1 ovarian): > 100 µM | GI50 (SW-620 colon): 0.228 µM | TGI (SW-620 colon): > 100 µM | GI50 (MDA-MB-231 breast): 8.9 µM | TGI (MDA-MB-231 breast): > 100 µM | GI50 (HOP-92 NSCLC): 15 µM | TGI (HOP-92 NSCLC): 97.5 µM

— PubChem BioAssay (NCI)
